What all share (experiment): isothermal titration calorimetry
Assay [1] deals with T1, Cra (catabolite repressor/activator; FruR) (Escherichia coli, UniProt P0ACP1, N73Y/D148R/G274R).
T1 construct: 2IKS is effector-free regulatory domain used for docking
As to conditions: 25 °C; 50 mM FBP injected into 15 μM protein (Fig. 5 legend prints 15 mM); effector-binding site; mutant of strain Tang1688.

Assay [2] deals with T2, Cra (catabolite repressor/activator; FruR) (Escherichia coli, UniProt P0ACP1, D101R/D148R/G274R).
T2 construct: 2IKS is effector-free regulatory domain used for docking
As to conditions: 25 °C; 50 mM FBP injected into 15 μM protein (Fig. 5 legend prints 15 mM); effector-binding site; mutant of strain Tang1683.

Assay [3] addresses T3, Cra (catabolite repressor/activator; FruR) (Escherichia coli, UniProt P0ACP1, D148R/A248F/G274R).
T3 construct: 2IKS is effector-free regulatory domain used for docking
The conditions noted are these: 25 °C; 50 mM FBP injected into 15 μM protein (Fig. 5 legend prints 15 mM); effector-binding site; mutant of strain Tang1684.

Assay [4] deals with T4, Cra (catabolite repressor/activator; FruR) (Escherichia coli, UniProt P0ACP1).
T4 construct: 2IKS is effector-free regulatory domain used for docking
The conditions noted are these: 25 °C; 50 mM FBP injected into 15 μM protein (Fig. 5 legend prints 15 mM); effector-binding site.

Consider 1 compound from publication PMC5146860, “Succinate production positively correlates with the affinity of the global transcription factor Cra for its effector FBP in Escherichia coli” (Biotechnology for Biofuels, 2016).

Broadly, the Kd is a measure of binding affinity in units of concentration. The low end stands for a tighter complex, the high end for a looser complex. Regarding `O=P(O)(O)OC[C@H]1OC(O)(COP(=O)(O)O)[C@@H](O)[C@@H]1O` (stereo partly shown) [fructose-1,6-bisphosphate], the Kd is 809.1 ± 4.6 nM in assay [1], 154 ± 4.3 nM in assay [2], 728.3 ± 3.8 nM in assay [3] and 1360 ± 6.2 nM in assay [4].
